A short description of data set [1]: Incubations with pooled human liver S9 fraction (pHLS9), metabolite identification by LC-HRMS/MS. The following applies: for Absolute peak area, pHLS9 1 h [25 μM] / Absolute peak area, pHLS9 6 h [25 μM]: 25 μM 4F-MDMB-BINACA, one replicate of n = 2, n.d. = not detected; for Absolute peak area, pHLS9 1 h [25 μM]: 1 h incubation; for Absolute peak area, pHLS9 6 h [25 μM]: 6 h incubation. Type of data set: in vitro ADME. The method, then:
According to published procedures (Richter et al., [2017b], [2019b]; Caspar et al., [2018b]; Wagmann et al., [2019b],[c]), the final incubation volume per reaction tube was 150 μl, with a final protein concentration of 2 mg/ml. The given concentrations represent final concentrations. A preincubation for 10 min at 37°C with UGT reaction mixture solution B (containing alamethicin, 25 μg/ml), MgCl2 (2.5 mM), NADP^+ (0.6 mM), isocitrate (2.5 mM), isocitrate dehydrogenase (0.8 U/ml), superoxide dismutase (100 U/ml), acetyl coenzyme A (0.1 mM), phosphate buffer (90 mM, pH 7.4), and pHLS9 (2 mg/ml) was done. Afterwards, UGT reaction mixture solution A (containing UDP glucuronic acid, 2.5 mM), PAPS (40 μM), SAM (1.2 mM), dithiothreitol (1 mM), and glutathione (10 mM) were added, as well as 25 μM 4F-MDMB-BINACA to start the reactions. The mixture was incubated for 360 min. Total amount of organic solvent in incubation mixtures was <2% (Chauret et al., [1998]). After 60 min, an aliquot of the reaction mixture (60 μl) was transferred in another reaction tube containing 20 μl of ice-cold acetonitrile to terminate the reactions. The remaining aliquot (90 μl) was incubated for an additional 300 min, and then the reactions were stopped by adding 30 μl of ice-cold acetonitrile. Thereafter, the reaction tubes were cooled at −20°C for 30 min prior to centrifugation at 18,407 × g for 2 min. The supernatants (50 μl) were transferred into autosampler vials, and 1 μl was injected onto the LC-HRMS/MS system. Control samples without pHLS9 and blank samples without substrate were prepared to confirm the absence of non-metabolically formed and interfering compounds, respectively. All incubations were performed in duplicate.
According to a previous study (Richter et al., [2019a]), a Thermo Fisher Scientific (TF, Dreieich, Germany) Dionex UltiMate 3000 Rapid Separation (RS) UHPLC system with a quaternary UltiMate 3000 RS pump and an UltiMate 3000 RS autosampler controlled by the TF Chromeleon software version 6.8 was used. The LC system was coupled to an Orbitrap-based TF Q-Exactive Plus equipped with a heated electrospray ionization II (HESI-II) source. Calibration was done prior to analysis with a Positive Cal Mix (Supelco, Bellefonte, PA, USA) at a flow rate of 3 μl/min using a syringe pump. The conditions of the LC system were as follows: TF Accucore PhenylHexyl column (100 × 2.1 mm, 2.6 μm particle size); gradient elution with 2 mM ammonium formate solution containing 0.1% (v/v) formic acid (eluent A) and 2 mM ammonium formate solution in acetonitrile/methanol (50:50, v/v) containing 0.1% (v/v) formic acid, and 1% (v/v) water (eluent B). […] The following gradient was used: 0–1.0 min hold 1% B, 1–10 min to 99% B, 10–11.5 min hold 99% B, 11.5–13.5 min hold 1% B. The HESI-II source conditions were as follows: ionization mode, positive; heater temperature, 320°C; ion transfer capillary temperature, 320°C; sheath gas, 60 arbitrary units (AU); auxiliary gas, 10 AU; spray voltage, 4.00 kV; and S-lens RF level, 50.0. Mass spectrometry experiments were performed using high-resolution (HR) full scan mode and a targeted MS^2 mode with an inclusion list for each NPS. The inclusion list contained m/z values of metabolites, which were likely to be formed for example hydroxy, oxo, carboxy, dealkyl, demethylenylated, and defluorinated metabolites (phase I) as well as sulfates and glucuronides (phase II) and combinations of them. Full scan settings were as follows: resolution, 35,000; automatic gain control (AGC) target, 3e6; maximum injection time (IT), 120 ms; scan ranges, 3,4-DMA-NBOMe m/z 100–700, ephylone m/z 200–600, 4F-MDMB-BINACA m/z 150–700, 4F-PHP m/z 200–600, and 1P-LSD m/z 250–700. The settings for the targeted MS^2 mode with the respective inclusion lists were as follows: resolution, 17,500; AGC target, 2e5; maximum IT, 250 ms; loop count, 5; isolation window, 1.0 m/z; stepped normalized collision energy (NCE), 17.5, 35, 52.5%; pick others, enabled. […]

Data set [2] has as its target T1, CYP2C8 (Homo sapiens, UniProt P10632).
T1 construct: purchased Corning; host or cells: baculovirus-transfected insect cell microsomes (Supersomes)
T1 sequence (P10632 1-490): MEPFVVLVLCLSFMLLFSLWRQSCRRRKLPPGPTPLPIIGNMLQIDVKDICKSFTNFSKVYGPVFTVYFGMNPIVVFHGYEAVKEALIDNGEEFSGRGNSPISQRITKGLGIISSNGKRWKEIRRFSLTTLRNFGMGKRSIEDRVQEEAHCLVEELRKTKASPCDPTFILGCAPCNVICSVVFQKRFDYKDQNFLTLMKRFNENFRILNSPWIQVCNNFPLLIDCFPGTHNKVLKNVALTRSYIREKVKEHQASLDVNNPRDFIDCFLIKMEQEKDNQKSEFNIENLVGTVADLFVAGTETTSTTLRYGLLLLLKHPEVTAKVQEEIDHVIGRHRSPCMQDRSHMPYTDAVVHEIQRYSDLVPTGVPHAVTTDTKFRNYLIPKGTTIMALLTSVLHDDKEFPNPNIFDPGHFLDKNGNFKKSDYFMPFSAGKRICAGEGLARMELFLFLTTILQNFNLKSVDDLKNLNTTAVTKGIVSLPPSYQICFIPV
In words: Monooxygenases activity screening, CYP2C8. The settings on record: 25 μM 4F-MDMB-BINACA, 50 pmol/ml enzyme, 30 min, 37°C, duplicate. More on the design: key: +, detected; –: −, not detected. Type of data set: in vitro ADME. As for the experimental part: According to an established protocol (Wagmann et al., [2016]), the final volume per reaction tube was 50 μl with a final 4F-MDMB-BINACA concentration of 25 μM and enzyme concentrations of 50 pmol/ml for CYP1A2, CYP2A6, CYP2B6, CYP2C8, CYP2C9, CYP2C19, CYP2D6, CYP2E1, CYP3A4, and CYP3A5, respectively, or 0.25 mg protein/ml for FMO3. Furthermore, the reaction mixture contained 90 mM phosphate buffer (pH 7.4), superoxide dismutase (200 U/ml), isocitrate (5 mM), MgCl2 (5 mM), isocitrate dehydrogenase (0.5 U/ml), and NADP^+ (1.2 mM). The phosphate buffer was replaced with Tris buffer (90 mM) for incubations with CYP2A6 and CYP2C9 according to the manufacturer's recommendation. All incubations were performed at 37°C for 30 min and terminated by adding 50 μl of ice-cold acetonitrile. Afterwards, the mixtures were centrifuged at 18,407 × g for 5 min, 70 μl of the supernatants was transferred into autosampler vials, and 1 μl was injected onto the LC-HRMS/MS system. Positive control incubations were performed with pHLM (1 mg microsomal protein/ml), and negative controls without enzyme were prepared to identify non-metabolically formed compounds. All incubations were done in duplicate.

In the case of `COC(=O)[C@@H](NC(=O)c1nn(CCCCF)c2ccccc12)C(C)(C)CO` [MB16], the “Absolute peak area, pHLS9 1 h [25 μM]” value in data set [1] was 1.70E+05. Also, the “Detection of metabolite in incubation with CYP2C8” value (“Detection of metabolite” for short) in data set [2] is listed as “–”.
As for `CC(C)(C)C(NC(=O)c1nn(CCCCF)c2ccccc12)C(=O)O` (centres unmarked) [MB8], in data set [1], the “Absolute peak area, pHLS9 1 h [25 μM]” value came to 1.01E+08 and the “Absolute peak area, pHLS9 6 h [25 μM]” value stood at 2.77E+08. Also, in data set [2], the “Detection of metabolite” value is listed as “–”.
For the molecule `O=C(O)c1nn(CCCCF)c2ccccc12` [MB1], the “Detection of metabolite” value in data set [2] is on record as “–”.
Consider `COC(=O)[C@@H](NC(=O)c1nn(CCCCO)c2ccccc12)C(C)(C)C` [MB11], for which, in data set [1], the “Absolute peak area, pHLS9 1 h [25 μM]” value is reported as 4.27E+06 and the “Absolute peak area, pHLS9 6 h [25 μM]” value worked out at 3.89E+05. For the same molecule, the “Detection of metabolite” value in data set [2] was “+”.
`COC(=O)C(NC(=O)c1nn(CCCCF)c2ccccc12)C(C)(C)C` (centres unmarked) [4F-MDMB-BINACA, methyl 2-[1-(4-fluorobutyl)-1H-indazole-3-carbonyl]amino-3,3-dimethylbutanoate]: the “Number of phase I metabolites detected, pHLS9 [25 μM]” value in data set [1] (25 μM) is listed as 15. Besides, in data set [1], the “Absolute peak area, pHLS9 1 h [25 μM]” value was determined as 9.37E+08 and the “Absolute peak area, pHLS9 6 h [25 μM]” value is given as 2.17E+08. In data set [1] (plasma, human data for ephylone and 4F-PHP from Wagmann et al., [2019b]), the “Relative number of matches with the four most abundant signals in human plasma, pHLS9 [25 μM]” value turned out to be 100%. In addition, the “Relative number of matches with the four most abundant signals in human urine, pHLS9 [25 μM]” value in data set [1] (urine, human data for ephylone and 4F-PHP from Wagmann et al., [2019b]) is recorded as 75%.
In the case of `COC(=O)[C@@H](NC(=O)c1n[nH]c2ccccc12)C(C)(C)C` [MB4], in data set [1], the “Absolute peak area, pHLS9 1 h [25 μM]” value was determined as 5.62E+06 and the “Absolute peak area, pHLS9 6 h [25 μM]” value amounted to 2.82E+05. The “Detection of metabolite” value in data set [2] was “–”.

Source of the values: publication PMC7380166, “How to Study the Metabolism of New Psychoactive Substances for the Purpose of Toxicological Screenings—A Follow-Up Study Comparing Pooled Human Liver S9, HepaRG Cells, and Zebrafish Larvae” (Frontiers in Chemistry, 2020).
